Source: patent EP0351597A2, “"N15-alkyl and N15,N15-di-alkyl derivatives of teicoplanin antibiotics carrying functional groups on the alkyl side chain” (GRUPPO LEPETIT S.p.A., priority 1988, dated 1990)
≈ marks a conversion by molar mass, not a printed value. Like-named read-outs stand apart in the source and are kept apart here.

How the values were obtained:
[1] = tested on: S. epidermidis ATCC 12228; assay: In vitro antibacterial activity (MIC), standard dilution test; format: cell-based
Method: (§1) Isosensitest broth (Oxoid) and Todd-Hewitt broth (Difco) are used for growing staphylococci and streptococci, respectively. Broth cultures are diluted so that the final inoculum is about 10⁴ colony forming units/ml (CFU/ml).

S. pneumoniae UC41 = assay: as above; format: cell-based
Method: as §1

S. pyogenes C203 = assay: as above; format: cell-based
Method: as §1

S. faecalis ATCC 7080 = assay: as above; format: cell-based
Method: as §1

S. haemolyticus L 602 = assay: as above; format: cell-based
Method: as §1

[2] = tested on: P. vulgaris X19H ATCC 881; assay: as above; format: cell-based
P. aeruginosa ISM = assay: as above; format: cell-based
S. pyogenes L 49 = assay: In vivo test in mice experimentally infected with S. pyogenes L 49 (ED50)
Method: The ED₅₀ values (mg/Kg) of representative compounds of the invention in vivo tests in mice experimentally infected with S. pyogenes L 49 and reported in Table V were carried out according to the procedure described by V. Arioli et al., Journal of Antibiotics 29, 511 (1976).

S. aureus Tour = assay: In vitro antibacterial activity (MIC), standard dilution test; format: cell-based
Excerpt: Isosensitest broth (Oxoid) and Todd-Hewitt broth (Difco) are used for growing staphylococci and streptococci, respectively. […]

E. coli SKF 12140 = assay: as above; format: cell-based
Acid-base titration = format: physicochemical; details: Methylcellosolve/H₂O, 4/1 (v/v); titrated with 0.01 N NaOH after adding 0.01 N HCl
[3] = Staphylococcus epidermidis, ATCC12228, read-out: MIC
[4] = Streptococcus pneumoniae, read-out: MIC
[5] = Streptococcus pyogenes, read-out: MIC
[6] = Enterococcus faecalis, ATCC7080, read-out: MIC
[7] = Proteus vulgaris, ATCC881, read-out: MIC
[8] = Pseudomonas aeruginosa, read-out: MIC
[9] = Streptococcus pyogenes, L49, sc, S. pyogenes L 49, s.c., read-out: ED50
[10] = Staphylococcus aureus, S. aureus Tour 10^4, read-out: MIC
[11] = Staphylococcus aureus, S. aureus Tour 10^6, read-out: MIC
[12] = Staphylococcus aureus, S. aureus Tour + 30% bovine serum, read-out: MIC
[13] = Escherichia coli, SKF12140, read-out: MIC
[14] = Staphylococcus haemolyticus, L602, S. haemolyticus L 602, no visible growth after 18-24 h at 37°C, inoculum about 10⁴ CFU/ml, read-out: MIC
[15] = S. haemolyticus L 602, no visible growth after 18-24 h at 37°C, inoculum about 10⁴ CFU/ml
[16] = S. aureus Tour + 30% bovine serum

CN(C)CCNC1C(=O)NC2Cc3ccc(c(Cl)c3)Oc3cc4cc(c3O)Oc3ccc(cc3Cl)C(O)C3NC(=O)C(NC(=O)C4NC(=O)C(NC2=O)c2cc(O)cc(c2)Oc2cc1ccc2O)c1ccc(O)c(c1)-c1c(O)cc(O)cc1C(C(=O)O)NC3=O (stereo not drawn) [Compound 5, N¹⁵-(2-dimethylamino)ethyl teicoplanin aglycon]
MIC [1, 3]: 0.06 µg/mL (≈ 0.0472 µM) | MIC (S. pneumoniae UC41; [4]): 0.125 µg/mL (≈ 0.0984 µM) | MIC (S. pyogenes C203; [5]): 0.25 µg/mL (≈ 0.197 µM) | MIC (S. faecalis ATCC 7080; [6]): 0.25 µg/mL (≈ 0.197 µM) | MIC (S. haemolyticus L 602; Staphylococcus haemolyticus, L602): 0.5 µg/mL (≈ 0.394 µM) | MIC [2, 7]: > 128 µg/mL | MIC (P. aeruginosa ISM; [8]): > 128 µg/mL | ED50 (S. pyogenes L 49; [9]): 1.25 mg/kg | MIC (S. aureus Tour; [10]): 0.125 µg/mL (≈ 0.0984 µM) | MIC (S. aureus Tour; [11]): 0.125 µg/mL (≈ 0.0984 µM) | MIC (S. aureus Tour; [12]): 1 µg/mL | MIC (E. coli SKF 12140; [13]): > 128 µg/mL | pK₁ (Acid-base titration): 4.75 | pK₂ (Acid-base titration): 6.5

CC(CO)NC1C(=O)NC2Cc3ccc(c(Cl)c3)Oc3cc4cc(c3O)Oc3ccc(cc3Cl)C(O)C3NC(=O)C(NC(=O)C4NC(=O)C(NC2=O)c2cc(O)cc(c2)Oc2cc1ccc2O)c1ccc(O)c(c1)-c1c(O)cc(O)cc1C(C(=O)O)NC3=O (stereo not drawn) [Compound 7, N¹⁵-(1-methyl-2-hydroxy)ethyl teicoplanin aglycon]
MIC [1, 3]: 0.06 µg/mL (≈ 0.0477 µM) | MIC (S. pneumoniae UC41; [4]): 0.12 µg/mL (≈ 0.0955 µM) | MIC (S. pyogenes C203; [5]): 0.12 µg/mL (≈ 0.0955 µM) | MIC (S. faecalis ATCC 7080; [6]): 0.25 µg/mL (≈ 0.199 µM) | MIC (S. haemolyticus L 602; [14]): 0.5 µg/mL (≈ 0.398 µM) | MIC [2, 7]: > 128 µg/mL | MIC (P. aeruginosa ISM; [8]): > 128 µg/mL | ED50 (S. pyogenes L 49; [9]): 0.84 mg/kg | MIC (S. aureus Tour; [10]): 0.06 µg/mL (≈ 0.0477 µM) | MIC (S. aureus Tour; [11]): 0.12 µg/mL (≈ 0.0955 µM) | MIC (S. aureus Tour; [12]): 1 µg/mL | MIC (E. coli SKF 12140; [13]): > 128 µg/mL

CC(O)C(C)NC1C(=O)NC2Cc3ccc(c(Cl)c3)Oc3cc4cc(c3O)Oc3ccc(cc3Cl)C(O)C3NC(=O)C(NC(=O)C4NC(=O)C(NC2=O)c2cc(O)cc(c2)Oc2cc1ccc2O)c1ccc(O)c(c1)-c1c(O)cc(O)cc1C(C(=O)O)NC3=O (stereo not drawn) [Compound 8, N¹⁵-(1-methyl-2-hydroxy)propyl teicoplanin aglycon]
MIC [1, 3]: 0.06 µg/mL (≈ 0.0472 µM) | MIC (S. pneumoniae UC41; [4]): 0.25 µg/mL (≈ 0.197 µM) | MIC (S. pyogenes C203; [5]): 0.12 µg/mL (≈ 0.0944 µM) | MIC (S. faecalis ATCC 7080; [6]): 0.12 µg/mL (≈ 0.0944 µM) | MIC (S. haemolyticus L 602; [14]): 0.5 µg/mL (≈ 0.393 µM) | MIC [2, 7]: > 128 µg/mL | MIC (P. aeruginosa ISM; [8]): > 128 µg/mL | ED50 (S. pyogenes L 49; [9]): 0.86 mg/kg | MIC (S. aureus Tour; [10]): 0.12 µg/mL (≈ 0.0944 µM) | MIC (S. aureus Tour; [11]): 0.12 µg/mL (≈ 0.0944 µM) | MIC (S. aureus Tour; [12]): 2 µg/mL | MIC (E. coli SKF 12140; [13]): > 128 µg/mL

N¹⁵-(1-methyl-2-hydroxy)ethyl teicoplanin [Compound 6]
MIC [1]: 0.5 microgram/ml | MIC (S. pneumoniae UC41): 0.25 microgram/ml | MIC (S. pyogenes C203): 0.12 microgram/ml | MIC (S. faecalis ATCC 7080): 0.12 microgram/ml | MIC (S. haemolyticus L 602; [15]): 1.6 microgram/ml | MIC [2]: >128 microgram/ml | MIC (P. aeruginosa ISM): >128 microgram/ml | MIC (S. aureus Tour; S. aureus Tour 10^4): 0.25 microgram/ml | MIC (S. aureus Tour; S. aureus Tour 10^6): 1 microgram/ml | MIC (S. aureus Tour; [16]): 2 microgram/ml | MIC (E. coli SKF 12140): >128 microgram/ml

N¹⁵-(1-methyl-2-hydroxy)propyl) teicoplanin [Compound 2]
MIC [1]: 0.25 microgram/ml | MIC (S. pneumoniae UC41): 0.25 microgram/ml | MIC (S. pyogenes C203): 0.06 microgram/ml | MIC (S. faecalis ATCC 7080): 0.12 microgram/ml | MIC (S. haemolyticus L 602; [15]): 16 microgram/ml | MIC [2]: >128 microgram/ml | MIC (P. aeruginosa ISM): >128 microgram/ml | MIC (S. aureus Tour; S. aureus Tour 10^4): 0.5 microgram/ml | MIC (S. aureus Tour; S. aureus Tour 10^6): 1 microgram/ml | MIC (S. aureus Tour; [16]): 2 microgram/ml | MIC (E. coli SKF 12140): >128 microgram/ml | pK₁ (Acid-base titration): 5.05 | pK₂ (Acid-base titration): 6.35

N¹⁵-(2,3-Dihydroxy)propyl teicoplanin [Compound 1]
MIC [1]: 0.25 microgram/ml | MIC (S. pneumoniae UC41): 0.25 microgram/ml | MIC (S. pyogenes C203): 0.06 microgram/ml | MIC (S. faecalis ATCC 7080): 0.12 microgram/ml | MIC (S. haemolyticus L 602; [15]): 32 microgram/ml | MIC [2]: >128 microgram/ml | MIC (P. aeruginosa ISM): >128 microgram/ml | MIC (S. aureus Tour; S. aureus Tour 10^4): 0.5 microgram/ml | MIC (S. aureus Tour; S. aureus Tour 10^6): 2 microgram/ml | MIC (S. aureus Tour; [16]): 2 microgram/ml | MIC (E. coli SKF 12140): >128 microgram/ml | pK₁ (Acid-base titration): 4.7 | pK₂ (Acid-base titration): 6

N¹⁵-(2-dimethylamino)ethyl teicoplanin [Compound 3]
MIC [1]: 0.125 microgram/ml | MIC (S. pneumoniae UC41): 0.125 microgram/ml | MIC (S. pyogenes C203): 0.125 microgram/ml | MIC (S. faecalis ATCC 7080): 0.125 microgram/ml | MIC (S. haemolyticus L 602; [15]): 2 microgram/ml | MIC [2]: >128 microgram/ml | MIC (P. aeruginosa ISM): >128 microgram/ml | ED50 (S. pyogenes L 49; S. pyogenes L 49, o.s.): >300 mg/kg | ED50 (S. pyogenes L 49; S. pyogenes L 49, s.c.): 0.41 mg/kg | MIC (S. aureus Tour; S. aureus Tour 10^4): 0.125 microgram/ml | MIC (S. aureus Tour; S. aureus Tour 10^6): 0.5 microgram/ml | MIC (S. aureus Tour; [16]): 0.5 microgram/ml | MIC (E. coli SKF 12140): >128 microgram/ml | pK₁ (Acid-base titration): 4.85 | pK₂ (Acid-base titration): 6.2 | pK₃ (Acid-base titration): 8.45

N¹⁵-(2-methoxyethoxy)methyl teicoplanin [Compound 4]
MIC [1]: 0.125 microgram/ml | MIC (S. pneumoniae UC41): 0.125 microgram/ml | MIC (S. pyogenes C203): 0.06 microgram/ml | MIC (S. faecalis ATCC 7080): 0.125 microgram/ml | MIC (S. haemolyticus L 602; [15]): 8 microgram/ml | MIC [2]: >128 microgram/ml | MIC (P. aeruginosa ISM): >128 microgram/ml | MIC (S. aureus Tour; S. aureus Tour 10^4): 0.12 microgram/ml | MIC (S. aureus Tour; S. aureus Tour 10^6): 0.5 microgram/ml | MIC (S. aureus Tour; [16]): 1 microgram/ml | MIC (E. coli SKF 12140): >128 microgram/ml
